From PubChem BioAssay AID248 (DTP/NCI, 2004)
Inconclusive results and toxic doses are left out. No stated cut-off is given here; in the data, active means T/C of 150% or more; inactive means T/C below 125%.

Tested on: L1210 leukemia ip in BDF1 mice, survival T/C
Assay: NCI In Vivo Anticancer Drug Screen. Data for tumor model L1210 Leukemia (intraperitoneal) in B6D2F1 (BDF1) mice
Settings: endpoint: mean survival time, higher = longer survival
In short: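 Each compound was tested against a transplantable tumor grown in mice. The endpoint was survival, with treated animals benchmarked against vehicle controls as a simple ratio.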

[1] = dose: 100.0 mg/kg/injection, schedule: Q04DX003 (ip), vehicle: Klucel (hydroxypropylcellulose) (HPC)
[2] = dose: 200.0 mg/kg/injection, schedule: Q04DX003 (ip), vehicle: Klucel (hydroxypropylcellulose) (HPC)
[3] = dose: 400.0 mg/kg/injection, schedule: Q04DX003 (ip), vehicle: Klucel (hydroxypropylcellulose) (HPC)
[4] = dose: 100.0 mg/kg/injection, schedule: Q01DX001 (ip), vehicle: other
[5] = dose: 200.0 mg/kg/injection, schedule: Q01DX001 (ip), vehicle: other
[6] = dose: 100.0 mg/kg/injection, schedule: Q01DX009 (ip), vehicle: saline with Tween-80
[7] = dose: 200.0 mg/kg/injection, schedule: Q01DX009 (ip), vehicle: saline with Tween-80
[8] = dose: 100.0 mg/kg/injection, schedule: Q01DX001 (ip), vehicle: saline
[9] = dose: 200.0 mg/kg/injection, schedule: Q01DX001 (ip), vehicle: saline
[10] = dose: 400.0 mg/kg/injection, schedule: Q01DX001 (ip), vehicle: saline
[11] = dose: 12.5 mg/kg/injection, schedule: Q01DX009 (ip), vehicle: Klucel (hydroxypropylcellulose) (HPC)
[12] = dose: 25.0 mg/kg/injection, schedule: Q01DX009 (ip), vehicle: Klucel (hydroxypropylcellulose) (HPC)
[13] = dose: 50.0 mg/kg/injection, schedule: Q01DX009 (ip), vehicle: Klucel (hydroxypropylcellulose) (HPC)
[14] = dose: 100.0 mg/kg/injection, schedule: Q01DX009 (ip), vehicle: Klucel (hydroxypropylcellulose) (HPC)
[15] = dose: 200.0 mg/kg/injection, schedule: Q01DX009 (ip), vehicle: Klucel (hydroxypropylcellulose) (HPC)
[16] = dose: 400.0 mg/kg/injection, schedule: Q01DX009 (ip), vehicle: Klucel (hydroxypropylcellulose) (HPC)
[17] = dose: 100.0 mg/kg/injection, schedule: Q04DX002 (ip), vehicle: saline with Tween-80
[18] = dose: 200.0 mg/kg/injection, schedule: Q04DX002 (ip), vehicle: saline with Tween-80

Measured: T/C

CCCCCCCCCCCC(=O)NC(=S)Nc1ccc([N+](=O)[O-])cc1C
inactive: [1] 88 % of control | [2] 86 % of control | [3] 90 % of control

Nc1cccc(C(=O)O)c1C(=O)O
inactive: dose: 6.25 mg/kg/injection, schedule: Q01DX009 (ip), vehicle: saline with Tween-80 100 % of control | dose: 12.5 mg/kg/injection, schedule: Q01DX009 (ip), vehicle: saline with Tween-80 96 % of control | dose: 25.0 mg/kg/injection, schedule: Q01DX009 (ip), vehicle: saline with Tween-80 91 % of control | dose: 75.0 mg/kg/injection, schedule: Q01DX001 (ip), vehicle: carboxymethylcellulose (CMC) 91 % of control | [1] 100 % of control | dose: 150.0 mg/kg/injection, schedule: Q01DX001 (ip), vehicle: carboxymethylcellulose (CMC) 94 % of control | [2] 91 % of control

CCCCSc1nc(NC(C)C)nc(NC(C)C)n1
inactive: dose: 100.0 mg/kg/injection, schedule: Q04DX002 (sc), vehicle: olive oil, sesame oil, peanut oil 118 % of control | dose: 200.0 mg/kg/injection, schedule: Q04DX002 (sc), vehicle: olive oil, sesame oil, peanut oil 115 % of control | dose: 400.0 mg/kg/injection, schedule: Q04DX002 (sc), vehicle: olive oil, sesame oil, peanut oil 101 % of control

Cc1ccc2c(c1)c(C)cc(=O)n2C
inactive: [4] 96 % of control | [5] 117 % of control

Brc1sccc1-c1cccc2ccccc12
inactive: dose: 100.0 mg/kg/injection, schedule: Q04DX003 (ip), vehicle: saline with Tween-80 94 % of control | dose: 400.0 mg/kg/injection, schedule: Q04DX003 (ip), vehicle: saline with Tween-80 91 % of control

CC(C)CC(NC(=O)c1ccccc1)C(N)=O (stereo not given)
inactive: [6] 90 % of control | [7] 90 % of control

CCN(CC)Cc1cc(Nc2cc(C)nc3ccc(N(C)C)cc23)ccc1O
inactive: dose: 12.5 mg/kg/injection, schedule: Q01DX009 (ip), vehicle: saline 104 % of control | dose: 25.0 mg/kg/injection, schedule: Q01DX009 (ip), vehicle: saline 98 % of control | dose: 50.0 mg/kg/injection, schedule: Q01DX009 (ip), vehicle: saline 100 % of control

Cc1cc(Cl)nc2ccc(Cc3ccccc3)cc12
inactive: [8] 102 % of control | [9] 96 % of control | [10] 103 % of control

C[N+](C)(C)c1ccc(/C(C#N)=N/O)cc1
inactive: [11] 101 % of control | [12] 100 % of control

CCOC(=O)C[n+]1ccccc1/C=C/c1ccc(O)cc1
inactive: dose: 9.38 mg/kg/injection, schedule: Q01DX001 (ip), vehicle: other 101 % of control

CCOc1ccc2nc(/C=C/c3ccc(N(C)C)cc3)ccc2c1
inactive: [13] 94 % of control | [14] 94 % of control | [15] 92 % of control | [16] 100 % of control

CN1CCCC1=Nc1ccc([N+](=O)[O-])cc1
inactive: [14] 104 % of control | [15] 108 % of control | [16] 102 % of control

COc1ccc(C=Nc2ccc(OC(C)=O)cc2)cc1
inactive: dose: 176.0 mg/kg/injection, schedule: Q01DX009 (ip), vehicle: other 105 % of control | dose: 264.0 mg/kg/injection, schedule: Q01DX009 (ip), vehicle: other 120 % of control

O=C(SC(=S)NCCNC(=S)SC(=O)c1ccccc1)c1ccccc1
inactive: dose: 50.0 mg/kg/injection, schedule: Q04DX002 (ip), vehicle: saline with Tween-80 95 % of control | [17] 87 % of control | [18] 98 % of control

O=[N+]([O-])C1CCCCC1O (stereo not given)
inactive: dose: 10.0 mg/kg/injection, schedule: Q01DX001 (ip), vehicle: saline 103 % of control | dose: 20.0 mg/kg/injection, schedule: Q01DX001 (ip), vehicle: saline 105 % of control | dose: 40.0 mg/kg/injection, schedule: Q01DX001 (ip), vehicle: saline 100 % of control

CC(C)C/C=N/NC(=O)Cc1ccccc1
inactive: [4] 101 % of control | [5] 94 % of control | dose: 400.0 mg/kg/injection, schedule: Q01DX001 (ip), vehicle: other 101 % of control

O=C1C(=O)N2c3ccccc3CCc3cccc1c32
inactive: dose: 100.0 mg/kg/injection, schedule: Q01DX001 (ip), vehicle: saline with Tween-80 103 % of control | [6] 96 % of control | dose: 200.0 mg/kg/injection, schedule: Q01DX001 (ip), vehicle: saline with Tween-80 93 % of control | [7] 100 % of control | dose: 400.0 mg/kg/injection, schedule: Q01DX001 (ip), vehicle: saline with Tween-80 97 % of control | dose: 400.0 mg/kg/injection, schedule: Q01DX009 (ip), vehicle: saline with Tween-80 100 % of control

Cn1c2ccccc2c2n[nH]c(=S)nc21
inactive: [17] 104 % of control | [18] 93 % of control | dose: 400.0 mg/kg/injection, schedule: Q04DX002 (ip), vehicle: saline with Tween-80 101 % of control

Nc1ncnc2c1ncn2C1CC(CO)C(O)C1O (stereo not given)
inactive: dose: 2.0 mg/kg/injection, schedule: Q01DX015 (ip), vehicle: Klucel (hydroxypropylcellulose) (HPC) 114 % of control | dose: 3.0 mg/kg/injection, schedule: Q01DX015 (ip), vehicle: Klucel (hydroxypropylcellulose) (HPC) 91 % of control | dose: 4.4 mg/kg/injection, schedule: Q01DX015 (ip), vehicle: Klucel (hydroxypropylcellulose) (HPC) 93 % of control | dose: 6.25 mg/kg/injection, schedule: Q01DX009 (ip), vehicle: carboxymethylcellulose (CMC) 98 % of control | dose: 6.7 mg/kg/injection, schedule: Q01DX015 (ip), vehicle: Klucel (hydroxypropylcellulose) (HPC) 96 % of control | dose: 10.0 mg/kg/injection, schedule: Q01DX015 (ip), vehicle: Klucel (hydroxypropylcellulose) (HPC) 97 % of control | dose: 12.5 mg/kg/injection, schedule: Q01DX009 (ip), vehicle: carboxymethylcellulose (CMC) 97 % of control | dose: 15.0 mg/kg/injection, schedule: Q01DX015 (ip), vehicle: Klucel (hydroxypropylcellulose) (HPC) 98 % of control | dose: 25.0 mg/kg/injection, schedule: Q01DX009 (ip), vehicle: carboxymethylcellulose (CMC) 89 % of control | dose: 50.0 mg/kg/injection, schedule: Q01DX001 (ip), vehicle: saline 93 % of control | [8] 102 % of control | [9] 91 % of control | [10] 88 % of control

COc1cc(CNC(=O)CCN2CC2)ccc1O
inactive: dose: 50.0 mg/kg/injection, schedule: Q04DX003 (ip), vehicle: Klucel (hydroxypropylcellulose) (HPC) 109 % of control | [1] 98 % of control | [2] 95 % of control | [3] 97 % of control

c1ccc(Nc2ccc(Nc3ccccc3)cc2)cc1
inactive: dose: 100.0 mg/kg/injection, schedule: Q01DX001 (ip), vehicle: Klucel (hydroxypropylcellulose) (HPC) 94 % of control | dose: 100.0 mg/kg/injection, schedule: Q01DX009 (ip), vehicle: saline 113 % of control | dose: 100.0 mg/kg/injection, schedule: Q04DX003 (ip), vehicle: saline 86 % of control | dose: 200.0 mg/kg/injection, schedule: Q01DX001 (ip), vehicle: Klucel (hydroxypropylcellulose) (HPC) 94 % of control | dose: 200.0 mg/kg/injection, schedule: Q01DX009 (ip), vehicle: saline 110 % of control | dose: 200.0 mg/kg/injection, schedule: Q04DX003 (ip), vehicle: saline 93 % of control | dose: 400.0 mg/kg/injection, schedule: Q01DX001 (ip), vehicle: Klucel (hydroxypropylcellulose) (HPC) 91 % of control | dose: 400.0 mg/kg/injection, schedule: Q01DX009 (ip), vehicle: saline 110 % of control | dose: 400.0 mg/kg/injection, schedule: Q04DX003 (ip), vehicle: saline 95 % of control

O=[N+]([O-])c1csc2ccccc12
inactive: [11] 97 % of control | [12] 90 % of control | [13] 90 % of control | [14] 105 % of control
